Where no end group is shown, it is not given here. The star is where a group is joined. Lauroyl = CCCCCCCCCCCC(=O)*
Legend:
[1] = tested on: Rabbit Full Thickness Articular Cartilage Defects; assay: Animal observation and gross pathology of rabbit knee cartilage defects at 12 weeks; type: in vivo, New Zealand White Rabbits; details: gross examination at 12 weeks
Description: Animal study was conducted at Northwestern University (Chicago, Ill.) in accordance with a protocol approved by the University's Animal Care and Usage Committee (ACUC). Ten (10) male New Zealand White Rabbits (weighing 3-3.5 kg) were anesthetized by intramuscular injection of ketamine at 30-40 mg/kg and xylazine 5-7 mg/kg. Isoflourane (1-3%) and oxygen were supplied by face mask until the animal was induced to sedation and general anesthesia for the entire procedure. Life support monitoring was supervised by veterinarians at Northwestern University's Center for Comparative Medicine (CCM, Chicago, Ill.). Under sterile aseptic technique, a midline 2-cm incision was made with the knee flexed at 20 degrees and subsequently a medial parapatellar capsulotomy was performed and the patella was translated laterally to expose the articular surface of the trochlea. Two full thickness chondral defects 2-mm in diameter were created in the trochlea (proximal-medial and distal-lateral) using curettes. […]
Post-operatively each rabbit was given intramuscular (IM) antibiotics (Baytril 72 hours duration) and IM pain medicine (Buprenex 24 hours duration). Signs of local or systemic infection were recorded as well as the general health and recovery of the rabbits. Rabbits were also evaluated for ability to weight bear and mobility within cages. […]

recombinant TGF-β1 = recombinant TGF-β1 (Homo sapiens, UniProt P01137); details: among all possible 7-mer peptide sequences; cited from earlier work
Sequence of recombinant TGF-β1 (P01137 279-390 limits assumed): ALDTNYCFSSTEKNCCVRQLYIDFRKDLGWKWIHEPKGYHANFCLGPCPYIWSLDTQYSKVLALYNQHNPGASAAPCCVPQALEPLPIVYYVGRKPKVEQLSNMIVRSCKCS

[2] = tested on: Rabbit Full Thickness Articular Cartilage Defects; assay: Histological evaluation (O'Driscoll scoring) of cartilage regeneration after microfracture in rabbit articular cartilage defect model; type: in vivo, New Zealand White Rabbits
Description: Animal study was conducted at Northwestern University (Chicago, Ill.) in accordance with a protocol approved by the University's Animal Care and Usage Committee (ACUC). Ten (10) male New Zealand White Rabbits (weighing 3-3.5 kg) were anesthetized by intramuscular injection of ketamine at 30-40 mg/kg and xylazine 5-7 mg/kg. Isoflourane (1-3%) and oxygen were supplied by face mask until the animal was induced to sedation and general anesthesia for the entire procedure. Life support monitoring was supervised by veterinarians at Northwestern University's Center for Comparative Medicine (CCM, Chicago, Ill.). Under sterile aseptic technique, a midline 2-cm incision was made with the knee flexed at 20 degrees and subsequently a medial parapatellar capsulotomy was performed and the patella was translated laterally to expose the articular surface of the trochlea. Two full thickness chondral defects 2-mm in diameter were created in the trochlea (proximal-medial and distal-lateral) using curettes. The articular cartilage, including the calcified cartilage layer, was completely removed and subchondral bone was exposed using a micro-curette as shown in FIG. 4a. Care was taken to not disrupt the subchondral bone, and sharp edges were created at the transition zone with the surrounding intact cartilage. Microfracture was performed within the defects by creating 3 holes spaced equally apart, and 2-mm deep to subchondral bone with a micro-awl. Marrow blood was seen emerging out of each microfracture hole and was allowed to infiltrate the cartilage defect (see FIG. 4b), which was then treated as described in Example 4.2 by application of the TGF-binding peptide amphiphile gel, or a control gel, with or without the addition of exogenous recombinant TGF-β1.
Post-operatively each rabbit was given intramuscular (IM) antibiotics (Baytril 72 hours duration) and IM pain medicine (Buprenex 24 hours duration). Signs of local or systemic infection were recorded as well as the general health and recovery of the rabbits. Rabbits were also evaluated for ability to weight bear and mobility within cages. At 12-weeks post-surgery rabbits were euthanized by injection of pentobarbital intravenously with a secondary measure of bilateral thoracotomy. Subsequently, the distal femur was harvested and processed for histological analysis.
Two full-thickness defects were created in each knee, resulting in 4 defects per rabbit (or 40 defects total for the 10 rabbits studied). Rabbit knees were divided into 4 groups, with both defects in each knee receiving the same treatment, and the contralateral knee serving as a control to account for any systemic effects. A total volume of 10 microliters (uL) of the test solutions were administered directly to each cartilage defect by micropipette, using sterile, disposable plastic tips. The treatment received by each group is summarized as follows:
In order to induce gelation of the peptide amphiphile solutions in situ in the defect site, 8 uL of a 12.5 mg/mL PA solution in phosphate-buffered saline (PBS) was administered followed immediately by 2 uL of a 0.5 M CaCl2 (in water), resulting in a final concentration of 10 mg/mL of the peptide amphiphile and 100 mM CaCl2. Recombinant human TGF-β1 (rhTGF-β1, Peprotech Inc.) was included in the PA solutions for Group 1, 2 and 3, in a concentration of […], resulting in a total dose of 1 ng per defect at the treatment dose of 10 uL. For animals receiving the TGF-binding peptide amphiphile (SEQ ID NO:4) this molecule was mixed at 10 mol % with the filler peptide amphiphile (SEQ ID NO:8) (a 1:9 molecular ratio). Each defect received 0.1 mg total peptide amphiphile (10 mg/mL in a 10 uL dose), either filler PA alone (Group 2) or filler PA plus TGF-binding PA (Group 3 and 4).
After the animals were sacrificed and tissue harvested at 12 weeks, extracted femur specimens were fixed in 10% neutral buffered formalin, decalcified for 24 hours, and the tissue processed for paraffin embedding. […]

[3] = O'Driscoll score = 0, 1, 2 or 3, Mean ± SD, 12-weeks post-treatment
[4] = O'Driscoll score = 0, 1 or 2, Mean ± SD, 12-weeks post-treatment

HSNGLPLGGGSEEEAAAVVV(K)-CO(CH2)10CH3 (HSNGLPLGGGSEEEAAAVVVK(Lauroyl)) [TGF-binding PA]
macroscopic appearance of repair tissue (tissue fill, defect boundary) [1]: significantly more hyaline-like tissue filling the defects

HSNGLPL
binding to recombinant TGF-β1 (phage display) (recombinant TGF-β1): strong, specific binding sequence

rhTGF-β1: Recombinant human TGF-β1 (Peprotech Inc.); Group 1: 10 uL of PBS with 1 ng of rhTGF-β1
qualitative assessment of histological sections (tissue morphology, defect fill, Safranin-O and Type II collagen staining) ([2]; 12 weeks, compared to controls): few had complete filling of the defect area | Degenerative Changes [2, 3]: 2.70 ± 0.35 | Hypocellularity [2, 3]: 1.96 ± 0.72 | Safranin-O staining of matrix [2, 3]: 1.48 ± 0.60 | Surface regularity [2, 3]: 2.00 ± 0.80 | Bonding to adjacent cartilage [2, 4]: 1.33 ± 0.53 | Chondrocyte clustering [2, 4]: 1.26 ± 0.40 | Structural integrity [2, 4]: 1.07 ± 0.62 | Thickness [2, 4]: 1.15 ± 0.60 | Cellular morphology ([2]; O'Driscoll score = 0, 2, or 4, Mean ± SD, 12-weeks post-treatment): 2.56 ± 1.43 | Total (max. score = 24) ([2]; O'Driscoll total histological score, Mean ± SD, 12-weeks post-treatment): 15.52 ± 4.74 | O'Driscoll histological score ([2]; maximum possible score of 24, 12 weeks): 15.5±4.7 | defects with <50% thickness compared to the surrounding cartilage ([2]; number of defects, 12 weeks): 1 of 9 | defects with mild chondrocyte clustering ([2]; number of defects, 12 weeks): 7 of 9 | defects with normal cellularity in the regenerated tissue ([2]; number of defects, 12 weeks): 2 of 9 | defects with regenerated tissue completely bonded to the adjacent cartilage ([2]; number of defects, 12 weeks): 3 of 9 | defects with >50% but <100% (50%-100%) thickness compared to the surrounding cartilage ([2]; number of remaining defects, 12 weeks): 8

From patent US8450271B2, “Peptide-based scaffolds for cartilage regeneration and methods for their use” (Northwestern University, priority 2009, dated 2013)
